The molecules below were run against SARS-CoV-2 PLpro (Severe acute respiratory syndrome coronavirus 2 (2019-nCoV) (SARS-CoV-2), UniProt P0DTD1) (assay: PLpro enzymatic inhibition assay (IC50 value determination)). Conditions: 60 min preincubation for covalent inhibitors, 10 min for non-covalent, read-out: Inhibition of SARS-CoV-2 PLpro IC50 range.
Format: biochemical

Compared with `C#CCNC(=O)CNC(=O)CN(C1CCN(C(C)c2cccc(C)c2C)CC1)S(C)(=O)=O` (stereo not shown) [Compound 99, 2-(N-(1-(1-(2,3-dimethylphenyl)ethyl)piperidin-4-yl)methylsulfonamido)-N-(2-oxo-2-(prop-2-yn-1-ylamino)ethyl)acetamide], `C#CCNC(=O)CNC(=O)CN(C1CCN(C(C)c2cccc(OC)c2Cl)CC1)S(C)(=O)=O` (stereo not shown) [Compound 123, 2-(N-(1-(1-(2-chloro-3-methoxyphenyl)ethyl)piperidin-4-yl)methylsulfonamido)-N-(2-oxo-2-(prop-2-yn-1-ylamino)ethyl)acetamide] is higher in IC50: under 0.1 µM for the first, 0.1 to 1 µM for the second.

`C#CCNC(=O)CNC(=O)CN(C1CCN(C(c2cccc3ccccc23)C(F)(F)F)CC1)S(C)(=O)=O` (stereo not shown) [Compound 100, N-(2-oxo-2-(prop-2-yn-1-ylamino)ethyl)-2-(N-(1-(2,2,2-trifluoro-1-(naphthalen-1-yl)ethyl)piperidin-4-yl)methylsulfonamido)acetamide] and `C#CCNC(=O)CNC(=O)CN(C1CCN(C(CC)c2cccc3ccccc23)CC1)S(C)(=O)=O` (stereo not shown) [Compound 103, 2-(N-(1-(1-(naphthalen-1-yl)propyl)piperidin-4-yl)methylsulfonamido)-N-(2-oxo-2-(prop-2-yn-1-ylamino)ethyl)acetamide] fall in the same range of IC50: 0.1 to 1 µM for the first, 0.1 to 1 µM for the second.

Compared with `C#CCNC(=O)CNC(=O)CN(C1CCN(C(C)c2ccccc2Cl)CC1)S(C)(=O)=O` (stereo not shown) [Compound 101, 2-(N-(1-(1-(2-chlorophenyl)ethyl)piperidin-4-yl)methylsulfonamido)-N-(2-oxo-2-(prop-2-yn-1-ylamino)ethyl)acetamide], `C#CCNC(=O)CNC(=O)CN(C1CCN(C(C)c2ccccc2F)CC1)S(C)(=O)=O` (stereo not shown) [Compound 129, 2-(N-(1-(1-(2-fluorophenyl)ethyl)piperidin-4-yl)methylsulfonamido)-N-(2-oxo-2-(prop-2-yn-1-ylamino)ethyl)acetamide] is higher in IC50: under 0.1 µM for the first, 0.1 to 1 µM for the second. The first is the more potent here.

First: C#CCNC(=O)CNC(=O)CN(C1CCN(C(C)c2ccccc2C(F)(F)F)CC1)S(C)(=O)=O (stereo not shown) [Compound 102, N-(2-oxo-2-(prop-2-yn-1-ylamino)ethyl)-2-(N-(1-(1-(2-(trifluoromethyl)phenyl)ethyl)piperidin-4-yl)methylsulfonamido)acetamide]
Second: C#CCNC(=O)CNC(=O)CN(C1CCN(C(C)c2ccccc2OC)CC1)S(C)(=O)=O (stereo not shown) [Compound 130, 2-(N-(1-(1-(2-methoxyphenyl)ethyl)piperidin-4-yl)methylsulfonamido)-N-(2-oxo-2-(prop-2-yn-1-ylamino)ethyl)acetamide]
The IC50 of the first is higher: 0.1 to 1 µM for the first, under 0.1 µM for the second. The second is the more potent here.

First: C#CCNC(=O)CNC(=O)CN(C1CCN(C2(c3cccc4ccccc34)CC2)CC1)S(C)(=O)=O [Compound 105, 2-(N-(1-(1-(naphthalen-1-yl)cyclopropyl)piperidin-4-yl)methylsulfonamido)-N-(2-oxo-2-(prop-2-yn-1-ylamino)ethyl)acetamide]
Second: C#CCCNC(=O)CNC(=O)CN(C1CCN([C@H](C)c2cccc3ccccc23)CC1)S(C)(=O)=O [Compound 127, (R)—N-(but-3-yn-1-yl)-2-(2-(N-(1-(1-(naphthalen-1-yl)ethyl)piperidin-4-yl)methylsulfonamido)acetamido)acetamide]
The IC50 of the first is higher: 1 to 10 µM for the first, 0.1 to 1 µM for the second. The second is the more potent here.

First: C#CCNC(=O)CNC(=O)CN(C1CCN(C(C)c2cccc(Br)c2)CC1)S(C)(=O)=O (stereo not shown) [Compound 108, 2-(N-(1-(1-(3-bromophenyl)ethyl)piperidin-4-yl)methylsulfonamido)-N-(2-oxo-2-(prop-2-yn-1-ylamino)ethyl)acetamide]
Second: C#CCNC(=O)CNC(=O)CN(C1CCN(C(C)c2ccc(OC)c(Cl)c2)CC1)S(C)(=O)=O (stereo not shown) [Compound 121, 2-(N-(1-(1-(3-chloro-4-methoxyphenyl)ethyl)piperidin-4-yl)methylsulfonamido)-N-(2-oxo-2-(prop-2-yn-1-ylamino)ethyl)acetamide]
The IC50 of the first is higher: 0.1 to 1 µM for the first, under 0.1 µM for the second. The second is the more potent here.

First: C#CCNC(=O)CNC(=O)CN(C1CCN(C(C)c2ccc3ccccc3c2)CC1)S(C)(=O)=O (stereo not shown) [Compound 110, 2-(N-(1-(1-(naphthalen-2-yl)ethyl)piperidin-4-yl)methylsulfonamido)-N-(2-oxo-2-(prop-2-yn-1-ylamino)ethyl)acetamide]
Second: C#CCNC(=O)CNC(=O)CN(C1CCN(C(C)c2cccc(-c3ccccc3)c2)CC1)S(C)(=O)=O (stereo not shown) [Compound 112, 2-(N-(1-(1-([1,1′-biphenyl]-3-yl)ethyl)piperidin-4-yl)methylsulfonamido)-N-(2-oxo-2-(prop-2-yn-1-ylamino)ethyl)acetamide]
The IC50 of the first is lower: under 0.1 µM for the first, 0.1 to 1 µM for the second.

Compared with `C#CCNC(=O)CNC(=O)CN(C1CCN(C(C)c2nccc3ccccc23)CC1)S(C)(=O)=O` (stereo not shown) [Compound 111, 2-(N-(1-(1-(isoquinolin-1-yl)ethyl)piperidin-4-yl)methylsulfonamido)-N-(2-oxo-2-(prop-2-yn-1-ylamino)ethyl)acetamide], `CC(c1cccc2ccccc12)N1CCC(N(CC(=O)NCC(=O)NCC#N)S(C)(=O)=O)CC1` (stereo not shown) [Compound 114, N-(cyanomethyl)-2-(2-(N-(1-(1-(naphthalen-1-yl)ethyl)piperidin-4-yl)methylsulfonamido)acetamido)acetamide] is higher in IC50: 0.1 to 1 µM for the first, 1 to 10 µM for the second. The first is the more potent here.

First: C#CCNC(=O)CNC(=O)CN(C1CCN(C(C)c2ccccc2-c2ccccc2)CC1)S(C)(=O)=O (stereo not shown) [Compound 113, 2-(N-(1-(1-([1,1′-biphenyl]-2-yl)ethyl)piperidin-4-yl)methylsulfonamido)-N-(2-oxo-2-(prop-2-yn-1-ylamino)ethyl)acetamide]
Second: C#CC(C)NC(=O)CNC(=O)CN(C1CCN([C@H](C)c2cccc3ccccc23)CC1)S(C)(=O)=O (stereo partly drawn) [Compound 128, N-(but-3-yn-2-yl)-2-(2-(N-(1-((R)-1-(naphthalen-1-yl)ethyl)piperidin-4-yl)methylsulfonamido)acetamido)acetamide]
The IC50 of the first is lower: 0.1 to 1 µM for the first, 1 to 10 µM for the second. The first is the more potent here.

First: C#CCNC(=O)CNC(=O)CN(C1CCN(C(C)c2cccc3ccccc23)CC1)S(=O)(=O)N1CCN(CC(=O)OCC)CC1 (stereo not shown) [Compound 115, ethyl 2-(4-(N-(1-(1-(naphthalen-1-yl)ethyl)piperidin-4-yl)-N-(2-oxo-2-((2-oxo-2-(prop-2-yn-1-ylamino)ethyl)amino)ethyl)sulfamoyl)piperazin-1-yl)acetate]
Second: C#CCNC(=O)CNC(=O)CN(C1CCN(C(C)c2cccc3ccccc23)CC1)S(=O)(=O)N1CCN(CC(=O)O)CC1 (stereo not shown) [Compound 117]
The IC50 of the first is lower: under 0.1 µM for the first, 1 to 10 µM for the second. The first is the more potent here.

Compared with `C#CCNC(=O)CNC(=O)CN(C(=O)CCC(=O)O)C1CCN(C(C)c2cccc3ccccc23)CC1` (stereo not shown) [Compound 118, 4-((1-(1-(naphthalen-1-yl)ethyl)piperidin-4-yl)(2-oxo-2-((2-oxo-2-(prop-2-yn-1-ylamino)ethyl)amino)ethyl)amino)-4-oxobutanoic acid], `C#CCNC(=O)CNC(=O)CN(C1CCN([C@H](C)c2cccc3ccccc23)CC1)S(=O)(=O)CCC(N)=O` [Compound 133, (R)-3-(N-(1-(1-(naphthalen-1-yl)ethyl)piperidin-4-yl)-N-(2-oxo-2-((2-oxo-2-(prop-2-yn-1-ylamino)ethyl)amino)ethyl)sulfamoyl)propanamide] is lower in IC50: 1 to 10 µM for the first, under 0.1 µM for the second. The second is the more potent here.

Compared with `C#CCNC(=O)CNC(=O)CN(C1CCN(c2nc3ccccc3s2)CC1)S(C)(=O)=O` [Compound 119, 2-(N-(1-(benzo[d]thiazol-2-yl)piperidin-4-yl)methylsulfonamido)-N-(2-oxo-2-(prop-2-yn-1-ylamino)ethyl)acetamide], `C#CCNC(=O)CNC(=O)CN(C1CCN(c2nc3cc(Cl)ccc3s2)CC1)S(C)(=O)=O` [Compound 126, 2-(N-(1-(5-chlorobenzo[d]thiazol-2-yl)piperidin-4-yl)methylsulfonamido)-N-(2-oxo-2-(prop-2-yn-1-ylamino)ethyl)acetamide] is higher in IC50: 0.1 to 1 µM for the first, 1 to 10 µM for the second.

`C#CCNC(=O)CNC(=O)CN(C1CCN(C(C)c2ccc(Cl)cc2Cl)CC1)S(C)(=O)=O` (stereo not shown) [Compound 120, 2-(N-(1-(1-(2,4-dichlorophenyl)ethyl)piperidin-4-yl)methylsulfonamido)-N-(2-oxo-2-(prop-2-yn-1-ylamino)ethyl)acetamide] and `C#CCNC(=O)CNC(=O)CN(C1CCN(C(C)c2c(Cl)cccc2Cl)CC1)S(C)(=O)=O` (stereo not shown) [Compound 125, 2-(N-(1-(1-(2,6-dichlorophenyl)ethyl)piperidin-4-yl)methylsulfonamido)-N-(2-oxo-2-(prop-2-yn-1-ylamino)ethyl)acetamide] fall in the same range of IC50: 0.1 to 1 µM for the first, 0.1 to 1 µM for the second.

`C#CCNC(=O)CNC(=O)CN(C1CCN(C(C)c2cccc3ccccc23)CC1)S(=O)(=O)CCC(=O)OC` (stereo not shown) [Compound 131, methyl 3-(N-(1-(1-(naphthalen-1-yl)ethyl)piperidin-4-yl)-N-(2-oxo-2-((2-oxo-2-(prop-2-yn-1-ylamino)ethyl)amino)ethyl)sulfamoyl)propanoate] and `C#CCNC(=O)CNC(=O)CN(C1CCN([C@H](C)c2cccc3ccccc23)CC1)S(=O)(=O)CCCO` [Compound 135, (R)-2-((3-hydroxy-N-(1-(1-(naphthalen-1-yl)ethyl)piperidin-4-yl)propyl)sulfonamido)-N-(2-oxo-2-(prop-2-yn-1-ylamino)ethyl)acetamide] cannot be ordered by IC50: under 0.1 µM for the first, under 0.1 µM for the second.

`CC(c1cccc2ccccc12)N1CCC(N(CC(=O)NCC(=O)NCC(=O)CF)S(C)(=O)=O)CC1` (stereo not shown) [Compound 132, N-(3-fluoro-2-oxopropyl)-2-(2-(N-(1-(1-(naphthalen-1-yl)ethyl)piperidin-4-yl)methylsulfonamido)acetamido)acetamide] and `C#CCNC(=O)CNC(=O)CN(C1CCN([C@H](C)c2cccc3ccccc23)CC1)S(=O)(=O)N1CCC(C(=O)OC)C1` (stereo partly drawn) [Compound 134, methyl 1-(N-(1-((R)-1-(naphthalen-1-yl)ethyl)piperidin-4-yl)-N-(2-oxo-2-((2-oxo-2-(prop-2-yn-1-ylamino)ethyl)amino)ethyl)sulfamoyl)pyrrolidine-3-carboxylate] cannot be ordered by IC50: under 0.1 µM for the first, under 0.1 µM for the second.

Work on `COC(=O)/C=C/CNC(=O)c1nnc(CNC(=O)CN(C2CCN(C(C)c3cccc4ccccc34)CC2)S(C)(=O)=O)o1` (stereo not shown) [Compound 136, methyl (E)-4-(5-((2-(N-(1-(1-(naphthalen-1-yl)ethyl)piperidin-4-yl)methylsulfonamido)acetamido)methyl)-1,3,4-oxadiazole-2-carboxamido)but-2-enoate] yielded an IC50 of 0.1 to 1 µM.

Reference: patent US20250059159A1, “PLPRO INHIBITORS” (SHANGHAI SYNERGY PHARMACEUTICAL SCIENCES CO., LTD., priority 2021, published 2025)
